# Experimental data as given in patent publication US11324209B2, “Composition to promote migration of acarids” (ACAR'UP SPRL, priority 2017, dated 2022).
# Values joined by “and” are separate entries in the source; they are usually repeats but may differ in a detail not shown here. Identical values can stand only once.
# Legend:
# [1] = test system: Dermatophagoides pteronyssinus; test: Trap test on infested mini-mattresses with sprayed felt, mites counted via Berlese funnel; assay type: in vivo; conditions: felt 100% polyester; 4 ml/200 cm^2; drying + exposure 0 h + 2 h; dilution 0.00001
# Experimental: Rearing: The species studied was Dermatophagoides pteronyssinus, a dust mite common in mattresses in Eurasia. Mites are reared in Petri dishes and fed with human skin flakes (skin and whiskers obtained by cleaning electric […]). All mites were reared together under defined conditions (20° C. and 75% relative humidity). The experiments took place in a room kept at 20° C. and 40% relative humidity. Aim of the experiments: The aim was to test the trap in condition similar to the conditions that will be met by the user of the trap. Materials and methods: The mattresses were built at a smaller scale (15× reduction) than usual mattresses. These mini-mattresses are made in polyurethane and covered by a cover in cotton. […] The fabric was a felt of 20 mg/cm^2 and is a rectangle of 10 cm×20 cm. It was placed on the mini-mattress. Then the attractive solution was sprayed on the fabric with a spray bottle. The fabric was left in place on the mattress. During this time, the mites moved in the felt. It is very difficult to count directly the mites hidden in the mattress and in the fabric. Therefore, we used a Berlese funnel which is a device that is usually used to separate insects from litter. Here, we used it to separate the mites form their mattress or from the fabric. […] The jar was emptied into a Petri dish and we counted mites under binocular. […]
# [2] = Shelf life and storage of the aqueous solution, citral and limonene by GC; assay type: physicochemical
# Experimental: Finding an appropriate storage material. Verifying the presence of volatile attractive molecules in fresh solutions (freshly produced, 1 day old) and stored solutions (8-12 months). Determining the quantity of those attractive molecules in said solutions, and thus allowing to follow said solutions' chemical profiles within time.
# An aqueous solution of 3.5 ng/μL essential oil from Melissa officinalis, 3.6 ng/μL essential oil from Cymbopogon flexuosus citraliferum and 5 ng/μL polysorbate 20 was produced, bottled and stored.
# Bottle material test: Two types of 100-ml bottles were tested. A plastic and an aluminum bottle were produced (20 bottles for each material). The bottles were stored 1 month, and then tested for the presence of citral.
# Long term shelf life test: 38 bottled solutions (stored 8-12 months) and 11 bottled fresh solutions (stored 1 day) were tested to compare the presence and quantity of citral and limonene.
# Quantitative measurements for citral and limonene were done by gas chromatography (GC). These are well known in the art. The essential oils were extracted from 25 ml of said bottled solution using 2 ml of n-hexane (LC-MS or HPLC grade). A sample of (1 μl) of the n-hexane extract was injected in the GC-MS equipped with a mass detector and using an OPTIMA-5MS capillary column (30 m, 0.25 mm I.D., […]). Programmed temperature elution was employed with an initial temperature of 40° C., then ramped to 280° C. at 8° C./min and held at 280° C. for 5 min. Helium was used as the carrier gas. Electron impact ionization was performed using an electron energy of 70 eV and a mass range of 40-800 m/z.
# [3] = test system: Dermatophagoides pteronyssinus; test: Binary choice test of mites between tested felt and control felt in a Petri dish; assay type: in vivo; design: key to stat Test: Stat diff: statistically different; NS: not significant; conditions: for Mean (binary choice of dust mites, tested felt) / stat Test: control felt + 1 μL H2O
# Experimental: Aim of the experiments: All experiments are tests of binary choice aiming to determine the preference of mites and the place where they prefer to stay (at least for 30 min).
# Rearing: The species studied was Dermatophagoides pteronyssinus, a dust mite common in mattresses in Eurasia. Mites are reared in Petri dishes and fed with human skin flakes (skin and whiskers obtained by cleaning electric shavers). All mites were reared together under defined conditions (20° C. and 75% relative humidity). The experiments took place in a room kept at 20° C. and 40% relative humidity.
# Materials and methods: A group of mites (20<n<40) was placed in the centre of a Petri dish (∅=5.5 cm) around which two semi-circles of felt were placed (see FIG. 1). The pieces of felts were 70 mg/cm^2, their thickness was 2 mm. One felt is the control (control felt); the other felt is the felt with the tested item, for instance the felt that is impregnated with a chemical compound that is tested.
# Mites move spontaneously towards one of the two felts.
# Observations and counting of mites was made under binocular microscope (magnification 10*). The set-up is illuminated with a cold lamp (KL 1500 LCD, Schott®), the lighting is symmetric and the light intensity was 50 Klux. The experimental conditions were controlled in the room (T° C.: 19-22° C. and RH 40%).
# Aim of the experiments: In the experiments, the tested felt was impregnated with chemicals that may be chemical acarid attractants.
# Different compounds were tested: Citral, limonene, α-pinene, eucalyptol, lavendulol, polysorbate 20. Dust mites were attracted to the dilute citral (10^−6) but the citral 10^−3 is repellent. The limonene (dil. 10^−5) and the α-pinene (dil. 10^−6) were attractive for mites.
# acarids = test: Acarid migration tests of attraction enhancers alone and with limonene (description); assay type: in vivo; conditions: for acarid attracting effect when used alone: low doses
# [4] = blue felt + 1 μL, dil 10^−6, control white felt + 1 μL H2O
# [5] = felt + 1 μL of Citral-0 (dilution not given)
# [6] = Aluminium bottle, stored 1 month
molecule,measurement,setting,value
"CC(C)=CCCC(C)=CC=O [Citral, 3,7-dimethyl-2,6-octadienal]",trapped living mites,[1],17%
same,concentration in stored solutions (mean ± St. Dev.) / detection,"[2]; 38 solutions, 8-12 months after production",not detected
same,presence in bottled solution (bottle material test),"[2]; plastic and aluminium bottles, stored 1 month",present in each sample analysed
same,Mean (compound and color),[3]; [4],0.84
same,Test stat (compound and color),[3]; [4],diff stat
same,migration of the mites toward the blue felt,[3]; blue felt in combination with citral,84%
same,effect on dust mites,[3]; dilution 10^−3,repellent
same,effect on dust mites,[3]; dilution 10^−6,attracted
same,"Mean (binary choice of dust mites, tested felt)",[3]; [5],0.03
same,stat Test,[3]; [5],Stat diff
same,"Mean (binary choice of dust mites, tested felt)","[3]; felt + 1 μL, dil 10^−3",0.23
same,stat Test,"[3]; felt + 1 μL, dil 10^−3",Stat diff
same,"Mean (binary choice of dust mites, tested felt)","[3]; felt + 1 μL, dilution 10^−6",0.72
same,stat Test,"[3]; felt + 1 μL, dilution 10^−6",Stat diff
"CC(C)=CCCC(C)CC=O (centres unmarked) [Citronellal, 3,7-dimethyloct-6-en-1-al]",acarid attracting effect when used alone,acarids,mild acarid attractant
same,migrated population,acarids; tested with limonene for long contact times,~1
"CC12CCC(CC1)C(C)(C)O2 [Eucalyptol, 1,3,3-Trimethyl-2-oxabicyclo [2.2.2.]octane]",effect on dust mites,[3]; dilution not stated,no statistically significant effect
same,"Mean (binary choice of dust mites, tested felt)","[3]; felt + 1 μL, dilution 10^−6",0.48 and 0.51
same,stat Test,"[3]; felt + 1 μL, dilution 10^−6",NS
CC(C)=CCC/C(C)=C/C=O [Geranial],content in the bottled aqueous solution (bottle material test),[2]; [6],12.56% ± 1.79
same,content in the bottled aqueous solution (bottle material test),"[2]; Plastic bottle, stored 1 month",13.03% ± 1.25
C=C(C)[C@H](CO)CC=C(C)C [Lavendulol],effect on dust mites,[3]; dilution not stated,no statistically significant effect
same,"Mean (binary choice of dust mites, tested felt)","[3]; felt + 1 μL, dilution 10^−6",0.46 and 0.51
same,stat Test,"[3]; felt + 1 μL, dilution 10^−6",NS
"C=C(C)C1CC=C(C)CC1 (centres unmarked) [Limonene, 1-methyl-4-(1-methylethenyl)-cyclohexene]",effect on dust mites,[3]; dil. 10^−5,attractive
same,"Mean (binary choice of dust mites, tested felt)","[3]; felt + 1 μL, dil. 10^−5",0.61
same,stat Test,"[3]; felt + 1 μL, dil. 10^−5",Stat diff
same,"Mean (binary choice of dust mites, tested felt)","[3]; felt + 1 μL, dilution 10^−6",0.48
same,stat Test,"[3]; felt + 1 μL, dilution 10^−6",NS
"C=CC(C)(O)CCC=C(C)C (centres unmarked) [Linalool, 3,7-dimethyl-1,6-octadien-3-ol]",acarid attracting effect when used alone,acarids,did not appear to have a significant attracting effect
same,effect in combination with limonene,acarids; combined with limonene and other attractants,significant increase in the migrated population
CC(C)=CCC/C(C)=C\C=O [Neral],content in the bottled aqueous solution (bottle material test),[2]; [6],12.68% ± 0.18
same,content in the bottled aqueous solution (bottle material test),"[2]; Plastic bottle, stored 1 month",12.63% ± 0.59
"CC1=CC[C@H]2C[C@@H]1C2(C)C [α-pinene, (15,55)-2,6,6-trimethylbicyclo[3.1.1]hept-2-ene]",effect on dust mites,[3]; dilution 10^−6,attractive
same,"Mean (binary choice of dust mites, tested felt)","[3]; felt + 1 μL, dil. 10^−5",0.45
same,stat Test,"[3]; felt + 1 μL, dil. 10^−5",NS
same,"Mean (binary choice of dust mites, tested felt)","[3]; felt + 1 μL, dilution 10^−6",0.58
same,stat Test,"[3]; felt + 1 μL, dilution 10^−6",Stat diff
polyoxyethylene (20) sorbitan monolaurate [Polysorbate 20],effect on dust mites,[3]; dilution not stated,no statistically significant effect
same,"Mean (binary choice of dust mites, tested felt)","[3]; felt + 1 μL, dilution 10^−6",0.50 and 0.53
same,stat Test,"[3]; felt + 1 μL, dilution 10^−6",NS
